Like-named read-outs stand apart in the source and are kept apart here.
Target: T1, sirtuin protein (Homo sapiens, UniProt Q96EB6)
T1 sequence (Q96EB6 2-747 limits assumed): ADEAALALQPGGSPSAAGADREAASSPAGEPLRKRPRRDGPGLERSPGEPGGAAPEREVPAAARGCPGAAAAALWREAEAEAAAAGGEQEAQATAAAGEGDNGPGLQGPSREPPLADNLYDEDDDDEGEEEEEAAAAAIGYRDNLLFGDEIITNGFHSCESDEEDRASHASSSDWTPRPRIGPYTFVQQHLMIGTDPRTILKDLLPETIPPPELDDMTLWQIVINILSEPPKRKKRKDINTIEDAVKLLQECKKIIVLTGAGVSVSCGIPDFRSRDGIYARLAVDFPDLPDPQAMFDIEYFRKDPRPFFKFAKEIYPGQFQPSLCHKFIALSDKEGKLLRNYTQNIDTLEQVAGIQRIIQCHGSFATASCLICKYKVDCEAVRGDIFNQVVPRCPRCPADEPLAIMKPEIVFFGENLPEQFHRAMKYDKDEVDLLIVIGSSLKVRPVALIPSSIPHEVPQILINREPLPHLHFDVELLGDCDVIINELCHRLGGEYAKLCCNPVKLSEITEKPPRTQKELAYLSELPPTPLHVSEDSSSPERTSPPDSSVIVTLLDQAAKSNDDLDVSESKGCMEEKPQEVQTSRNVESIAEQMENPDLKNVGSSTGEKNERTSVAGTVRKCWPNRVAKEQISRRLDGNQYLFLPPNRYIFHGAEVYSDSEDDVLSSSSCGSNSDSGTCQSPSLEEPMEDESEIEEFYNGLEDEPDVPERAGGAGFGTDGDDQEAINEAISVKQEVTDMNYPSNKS
Assay: MS assay (IC50 MS ASSAY / ED50 MS / FOLD ACTIVATION MS)
Type: biochemical
Design: scale not given here

[1] = Table 4, class symbols A′, A, B, D, NA, legend not given
[2] = class symbols (A′, A, B, D, NA), no legend given

O=C(Nc1ccccc1-c1nc2cccnc2[nH]1)c1ccc(N2CCCCC2)cc1 [Compound 527]
A′: ED50 MS ASSAY | ED50 MS ASSAY (Table 4) | ED50 MS ASSAY (Table 4, class symbols) | ED50 MS ASSAY [1] | ED50 MS ASSAY [2]

COc1ccc(C(=O)Nc2ccccc2-c2nc3cccnc3[nH]2)cc1C(F)(F)F [Compound 528]
A′: ED50 MS ASSAY | ED50 MS ASSAY (Table 4) | ED50 MS ASSAY (Table 4, class symbols) | ED50 MS ASSAY [1] | ED50 MS ASSAY [2]

O=C(Nc1ccccc1-c1nc2cccnc2[nH]1)c1cccc(OC(F)(F)F)c1 [Compound 529]
A′: ED50 MS ASSAY | ED50 MS ASSAY (Table 4) | ED50 MS ASSAY (Table 4, class symbols) | ED50 MS ASSAY [1] | ED50 MS ASSAY [2]

COc1cccc(C(=O)Nc2ccccc2-c2nc3cccnc3[nH]2)c1C [Compound 530]
A′: ED50 MS ASSAY | ED50 MS ASSAY (Table 4) | ED50 MS ASSAY (Table 4, class symbols) | ED50 MS ASSAY [1] | ED50 MS ASSAY [2]

COc1ccc(C(=O)Nc2ccccc2-c2nc3cccnc3[nH]2)cc1 [Compound 531]
A′: ED50 MS ASSAY | ED50 MS ASSAY (Table 4) | ED50 MS ASSAY (Table 4, class symbols) | ED50 MS ASSAY [1] | ED50 MS ASSAY [2]

COc1cccc(C(=O)Nc2ccccc2-c2nc3cccnc3[nH]2)c1 [Compound 532]
A′: ED50 MS ASSAY | ED50 MS ASSAY (Table 4) | ED50 MS ASSAY (Table 4, class symbols) | ED50 MS ASSAY [1] | ED50 MS ASSAY [2]

O=C(Nc1ccccc1-c1nc2cccnc2[nH]1)c1ccccc1 [Compound 533]
A′: ED50 MS ASSAY | ED50 MS ASSAY (Table 4) | ED50 MS ASSAY (Table 4, class symbols) | ED50 MS ASSAY [1] | ED50 MS ASSAY [2]

CN(C)c1ccc(C(=O)Nc2ccccc2-c2nc3cccnc3[nH]2)cc1 [Compound 534]
A′: ED50 MS ASSAY | ED50 MS ASSAY (Table 4) | ED50 MS ASSAY (Table 4, class symbols) | ED50 MS ASSAY [1] | ED50 MS ASSAY [2]

COc1cc(C(=O)Nc2ccccc2-c2nc3cccnc3[nH]2)ccc1CN1CCOCC1 [Compound 537]
A′: ED50 MS ASSAY | ED50 MS ASSAY (Table 4) | ED50 MS ASSAY (Table 4, class symbols) | ED50 MS ASSAY [1] | ED50 MS ASSAY [2]

COc1cc(C(=O)Nc2ccccc2-c2nc3cccnc3[nH]2)ccc1CN1CCN(C)CC1 [Compound 539]
A′: ED50 MS ASSAY | ED50 MS ASSAY (Table 4) | ED50 MS ASSAY (Table 4, class symbols) | ED50 MS ASSAY [1] | ED50 MS ASSAY [2]

O=C(Nc1ccccc1-c1cn2c(CN3CCNCC3)csc2n1)c1cnccn1 [Compound 543]
A′: ED50 MS ASSAY | ED50 MS ASSAY (Table 4) | ED50 MS ASSAY (Table 4, class symbols) | ED50 MS ASSAY [1] | ED50 MS ASSAY [2]

O=C(Nc1ccccc1-c1cn2c(n1)CCCC2)c1ccc2ccccc2n1 [Compound 547]
A′: ED50 MS ASSAY | ED50 MS ASSAY (Table 4) | ED50 MS ASSAY (Table 4, class symbols) | ED50 MS ASSAY [1] | ED50 MS ASSAY [2]

O=C(Nc1ccccc1-c1cn2c(n1)CCCC2)c1cnc2ccccc2n1 [Compound 548]
A′: ED50 MS ASSAY | ED50 MS ASSAY (Table 4) | ED50 MS ASSAY (Table 4, class symbols) | ED50 MS ASSAY [1] | ED50 MS ASSAY [2]

O=C(Nc1ccccc1-c1nc2ccccc2[nH]1)c1ccc2ccccc2n1 [Compound 556]
A′: ED50 MS ASSAY | ED50 MS ASSAY (Table 4) | ED50 MS ASSAY (Table 4, class symbols) | ED50 MS ASSAY [1] | ED50 MS ASSAY [2]

COc1cc(C(=O)Nc2ccccc2-c2nc3ccccc3[nH]2)ccc1CN1CCNCC1 [Compound 558]
A′: ED50 MS ASSAY | ED50 MS ASSAY (Table 4) | ED50 MS ASSAY (Table 4, class symbols) | ED50 MS ASSAY [1] | ED50 MS ASSAY [2]

COc1ccc(C(=O)Nc2ccc(-c3nc4ccncc4o3)s2)c(OC)c1 [Compound 561]
A′: ED50 MS ASSAY | ED50 MS ASSAY (Table 4) | ED50 MS ASSAY (Table 4, class symbols) | ED50 MS ASSAY [1] | ED50 MS ASSAY [2]

COc1cc(OC)cc(C(=O)Nc2ccc(-c3nc4ccncc4o3)s2)c1 [Compound 562]
A′: ED50 MS ASSAY | ED50 MS ASSAY (Table 4) | ED50 MS ASSAY (Table 4, class symbols) | ED50 MS ASSAY [1] | ED50 MS ASSAY [2]

COc1cc(C(=O)Nc2ccccc2-c2nc3ccccc3[nH]2)ccc1CN1CCCC1 [Compound 587]
A′: ED50 MS ASSAY | ED50 MS ASSAY (Table 4) | ED50 MS ASSAY (Table 4, class symbols) | ED50 MS ASSAY [1] | ED50 MS ASSAY [2]

COc1cc(OC)cc(C(=O)Nc2ccccc2-c2nc3cc(CN4CCNCC4)cnc3s2)c1 [Compound 589]
A′: ED50 MS ASSAY | ED50 MS ASSAY (Table 4) | ED50 MS ASSAY (Table 4, class symbols) | ED50 MS ASSAY [1] | ED50 MS ASSAY [2]

Cc1ccc(C(=O)Nc2ccccc2-c2nc3cc(CN4CCNCC4)cnc3s2)cc1C [Compound 591]
A′: ED50 MS ASSAY | ED50 MS ASSAY (Table 4) | ED50 MS ASSAY (Table 4, class symbols) | ED50 MS ASSAY [1] | ED50 MS ASSAY [2]

N#Cc1cccc(C(=O)Nc2ccccc2-c2nc3cc(CN4CCNCC4)cnc3s2)c1 [Compound 592]
A′: ED50 MS ASSAY | ED50 MS ASSAY (Table 4) | ED50 MS ASSAY (Table 4, class symbols) | ED50 MS ASSAY [1] | ED50 MS ASSAY [2]

CN(C)c1cccc(C(=O)Nc2ccccc2-c2nc3cc(CN4CCNCC4)cnc3s2)c1 [Compound 593]
A′: ED50 MS ASSAY | ED50 MS ASSAY (Table 4) | ED50 MS ASSAY (Table 4, class symbols) | ED50 MS ASSAY [1] | ED50 MS ASSAY [2]

O=C(Nc1ccccc1-c1cn2c(CN3CCOCC3)csc2n1)c1cnc2ccccc2n1 [Compound 617]
A′: ED50 MS ASSAY | ED50 MS ASSAY (Table 4) | ED50 MS ASSAY (Table 4, class symbols) | ED50 MS ASSAY [1] | ED50 MS ASSAY [2]

O=C(Nc1ccccc1-c1cn2c(CN3CCCCC3)csc2n1)c1cnc2ccccc2n1 [Compound 618]
A′: ED50 MS ASSAY | ED50 MS ASSAY (Table 4) | ED50 MS ASSAY (Table 4, class symbols) | ED50 MS ASSAY [1] | ED50 MS ASSAY [2]

O=C(Nc1ccccc1-c1cn2c(CN3CCCC3)csc2n1)c1cnc2ccccc2n1 [Compound 619]
A′: ED50 MS ASSAY | ED50 MS ASSAY (Table 4) | ED50 MS ASSAY (Table 4, class symbols) | ED50 MS ASSAY [1] | ED50 MS ASSAY [2]

COc1cc(C(=O)Nc2ccccc2-c2cn3c(CN4CCCC4)csc3n2)cc(OC)c1OC [Compound 620]
A′: ED50 MS ASSAY | ED50 MS ASSAY (Table 4) | ED50 MS ASSAY (Table 4, class symbols) | ED50 MS ASSAY [1] | ED50 MS ASSAY [2]

O=C(Nc1ncccc1-c1cn2c(CN3CCOCC3)csc2n1)c1cnc2ccccc2n1 [Compound 621]
A′: ED50 MS ASSAY | ED50 MS ASSAY (Table 4) | ED50 MS ASSAY (Table 4, class symbols) | ED50 MS ASSAY [1] | ED50 MS ASSAY [2]

O=C(Nc1ccccc1-c1nc2cc(CN3CCNCC3)cnc2s1)c1cnc2ccccc2n1 [Compound 622]
A′: ED50 MS ASSAY | ED50 MS ASSAY (Table 4) | ED50 MS ASSAY (Table 4, class symbols) | ED50 MS ASSAY [1] | ED50 MS ASSAY [2]

O=C(Nc1ccccc1-c1cn2c(CN3CCNCC3)csc2n1)c1cc2ccccc2o1 [Compound 624]
A′: ED50 MS ASSAY | ED50 MS ASSAY (Table 4) | ED50 MS ASSAY (Table 4, class symbols) | ED50 MS ASSAY [1] | ED50 MS ASSAY [2]
